# Measured values taken from US7390831B2, “Tetracyclic steroid derivatives useful as progesterone receptor modulators” (Janssen Pharmaceutica N.V., priority 2006, dated 2008).
# Where two headings read alike, the source gives them in different places.
# Legend:
# [1] = system: A549 Human lung carcinoma cells; experiment: A549 Human Lung Cell Assay (transfected cells, dexamethasone challenge, luciferase read-out); assay type: cell-based; conditions: test compound 10 min then dexamethasone challenge, 24 h, Luc-assay, read-out: A 549 IC50
# Protocol: A549Human Lung Cell Assay
# A549Human lung carcinoma cells were grown in F-12K Nutrient Mixture containing 10% (v/v) fetal bovine serum (FBS; Invitrogen), 2 mM glutamine and 0.15% sodium dicarbonate (Invitrogen).
# A549 cells were split 1 to 3 in 175 cm tissue culture flask. The cells were incubated at 37° C. in CO2 incubator until the cells were 95% confluent (typically 24-30 hours).
# The following solutions were prepared in sterile tubes: (a) Solution A 1.5 μg/ml of DNA in 8.5 ml OPTI-MEM I Reduced Serum Medium. (GIBCO cat# 31985) and (b) Solution B: 6 μl/ml of DMRIE-C Reagent into […] OPTI-MEM I. The two solutions were combined and mixed gently, then incubated at room temperature for 40 minutes.
# The A549 cells prepared above were washed with […] of OPTI-MEM I. The medium was removed and 17 ml of the lipid-DNA complex solution was overlayed onto cells. The cells ere then incubated for 16 h at 37° C. in CO2 incubator. The DNA-containing medium was removed and 30 ml of growth medium was added. (5% Charcoal treated FBS) After 5-6 h, the cells were seeded in a 96 well plate and the cells incubated overnight at 37° C. in CO2 incubator.
# To each well was then added 5 μl of test compounds and the cells incubated at 37° C. for 10 min. 5 μL of dexamathasone (CAS [50-02-2]), was then added to each well for challenger and the cells incubated at 37° C. in CO2 incubator for 24 h. 100 μl of Luc-assay buffer was then added into each cell well and the cells incubated for 30 min at room temperature. A 150 μL sample from each well was then transferred into a DYNEX Microlitel plate and read on Top-counter.
# (§1) Representative compounds of the present invention were tested according to the procedures described in Examples 45 and 46 above, with results as listed in Table 2 below.
# [2] = system: T47D human breast cancer cells; experiment: T47D Human Breast Cancer Cells Assay (alkaline phosphatase, luminescence); assay type: cell-based
# Protocol: T47D Human Breast Cancer Cells Assay
# T47D human breast cancer cells were grown in RPMI medium without phenol red (Invitrogen) containing 10% (v/v) heat-inactivated fetal bovine serum (FBS; Hyclone), 1% (v/v) penicillin-streptomycin (Invitrogen), 1% (w/v) glutamine (Invitrogen), and […] insulin (Sigma). Incubation conditions were 37° C. in a humidified 5% (v/v) carbon dioxide environment.
# The cells were plated in 96-well tissue culture plates at 10,000 cells per well in assay medium [RPMI medium without phenol red (Invitrogen) containing 5% (v/v) charcoal-treated FBS (Hyclone) and 1% (v/v) penicillin-streptomycin (Invitrogen)]. Two days later, the medium was decanted and test compound or control were added at a final concentration of 0.1% (v/v) dimethyl sulfoxide in fresh assay medium. Twenty-four hours later, an alkaline phosphatase assay was performed using a SEAP kit (BD Biosciences Clontech, Palo Alto, Calif.). Briefly, the medium was decanted and the cells were fixed for 30 minutes at room temperature with 5% (v/v) formalin (Sigma). The cells were washed once with room temperature Hank's buffered saline solution (Invitrogen). Equal volumes (0.05 mL) of 1× Dilution Buffer, Assay Buffer and 1:20 substrate/enhancer mixture were then added. After 1 hour incubation at room temperature in the dark, the lysate was transferred to a white 96-well plate (Dynex) and luminescence was read using a LuminoSkan Ascent (Thermo Electron, Woburn, Mass.).
# as §1
# [3] = Homo sapiens, T47D, 24 h, read-out: T47D IC50 (nM), T47D cells, 24 h with test compound, alkaline phosphatase assay (SEAP kit)
# [4] = read-out: T47D IC50, T47D cells, 24 h with test compound, alkaline phosphatase assay (SEAP kit)
Structure (SMILES),"IC50 ([1]; Homo sapiens, A549, A549 cells)","IC50 [2, 3]",IC50 ([1]; A549 cells),"IC50 [2, 4]","IC50 ([2]; T47D cells, 24 h with test compound, alkaline phosphatase assay (SEAP kit), read-out: T47D IC50)"
"CN(C)c1ccc([C@H]2OC[C@]3(C)C(=O)CCC3C3CCC4=CC(=O)CCC4=C32)cc1 (some centres unmarked) [Compound 10, 10-(4-Dimethylamino-phenyl)-12a-methyl-2,3,3a,3b,4,5,9,10,12,12a-decahydro-8H-11-oxa-naphtho[2,1-e]azulene-1,7-dione]",> 3000 nM,1800 nM,–,–,–
"COc1ccc([C@H]2OC[C@@]3(C)C(CC[C@@]3(O)C#Cc3ccc(C(C)(C)C)cc3)C3CCC4=CC(=O)CCC4=C32)cc1 (some centres unmarked) [Compound 9, 1-(4-tert-Butyl-phenylethynyl)-1-hydroxy-10-(4-methoxy-phenyl)-12a-methyl-2,3,3a,3b,4,5,9,10,12,12a-decahydro-1H,8H-11-oxa-naphtho[2,1-e]azulen-7-one]",626 nM,264 nM,–,–,–
CSc1ccc([C@H]2OC[C@@]3(C)C(CC[C@@]3(O)C(F)(F)C(F)(F)F)C3CCC4=CC(=O)CCC4=C32)cc1 (some centres unmarked) [Compound 5],7.06 nM,54 nM,–,–,–
"CSc1ccc([C@H]2OC[C@]3(C)C(C#Cc4ccccc4)=CCC3C3CCC4=CC(=O)CCC4=C32)cc1 (some centres unmarked) [Compound 11, 12a-Methyl-10-(4-methylsulfanyl-phenyl)-1-phenylethynyl 3a,3b,4,5,9,10,12,12a-octahydro-3H,8H-11-oxa-naphtho[2,1-e]azulen-7-one]",> 3000 nM,> 1000 nM,–,–,–
"C#C[C@]1(O)CCC2C3CCC4=CC(=O)CCC4=C3[C@H](c3ccc(OC)cc3)OC[C@@]21C (some centres unmarked) [Compound 13, 1-Ethynyl-1-hydroxy-10-(4-methoxy-phenyl)-12a-methyl 2,3,3a,3b,4,5,9,10,12,12a-decahydro-1H,8H-11-oxa-naphtho[2,1-e]azulen-7-one]",367 nM,> 1000 nM,–,–,–
"COc1ccc([C@H]2OC[C@@]3(C)C(CC[C@@]3(O)C#Cc3ccccc3)C3CCC4=CC(=O)CCC4=C32)cc1 (stereo in doubt) [Compound 23, 1-Hydroxy-10-(4-methoxy-phenyl)-12a-methyl-1-phenylethynyl-2,3,3a,3b,4,5,9,10,12,12a-decahydro-1H,8H-11-oxa-naphtho[2,1-e]azulen-7-one]",–,–,237 nM,260 nM,–
"C=CC[C@]1(O)CCC2C3CCC4=CC(=O)CCC4=C3[C@H](c3ccc(OC)cc3)OC[C@@]21C (stereo partly drawn) [Compound 18, 1-Allyl-1-hydroxy-10α-(4-methoxy-phenyl)-12a-methyl 2,3,3a,3b,4,5,9,10,12,12a-decahydro-1H,8H-11-oxa-naphtho[2,1-e]azulen-7-one]",> 3000 nM,> 1000 nM,–,–,–
"C=C(C)[C@]1(O)CCC2C3CCC4=CC(=O)CCC4=C3[C@@H](c3ccc(N(C)C)cc3)OC[C@@]21C (some centres unmarked) [Compound 1, 10-(4-Dimethylamino-phenyl)-1-hydroxy-1-isopropenyl-12a methyl-2,3,3a,3b,4,5,9,10,12,12a-decahydro-1H,8H-11-oxa-naphtho[2,1 e]azulen-7-one]",50.1 nM,0.4 nM,–,–,–
"CC#C[C@]1(O)CCC2C3CCC4=CC(=O)CCC4=C3[C@H](c3ccc(OC)cc3)OC[C@@]21C (stereo partly drawn) [Compound 15, 1-Hydroxy-10-α(4-methoxy-phenyl)-12a-methyl-1-prop-1-ynyl-2,3,3a,3b,4,5,9,10,12,12a-decahydro-1H,8H-11-oxa-naphtho[2,1-e]azulen-7-one]",583 nM,> 1000 nM,–,–,–
"CSc1ccc(C2OCC3(C)C(CCC3(O)C(F)(F)C(F)(F)F)C3CCC4=CC(=O)CCC4=C23)cc1 (centres unmarked) [Compound 4, 1-Hydroxy-12a-methyl-10-(4-methylsulfanyl-phenyl)-1-pentafluoroethyl-2,3,3a,3b4,5,9,10,12,12a-decahydro-1H,8H-11-oxa-naphtho[2,1-e]azulen-7-one]",–,–,68.7 nM,–,33.2 nM
"COc1ccc([C@H]2OC[C@@]3(C)C(CC[C@@]3(O)C#Cc3ccc(C(F)(F)F)cc3)C3CCC4=CC(=O)CCC4=C32)cc1 (some centres unmarked) [Compound 6, 1-Hydroxy-10-(4-methoxy-phenyl)-12a-methyl-1-(4-trifluoromethyl-phenylethynyl)-2,3,3a,3b,4,5,9,10,12,12a-decahydro-1H,8H-11-oxa-naphtho[2,1-e]azulen-7-one]",–,–,109 nM,83 nM,–
"COc1ccc([C@@H]2OC[C@@]3(C)C(CC[C@@]3(O)C#Cc3ccc(C(F)(F)F)cc3)C3CCC4=CC(=O)CCC4=C32)cc1 (some centres unmarked) [Compound 22, 1-Hydroxy-10-(4-methoxy-phenyl)-12a-methyl-1-(4-trifluoromethylphenylethynyl)-2,3,3a,3b,4,5,9,10,12,12a-decahydro-1H,8H-11-oxa-naphtho[2,1-e]azulen-7-one]",> 3000 nM,> 1000 nM,–,–,–
"C=C(C)[C@]1(O)CCC2C3CCC4=CC(=O)CCC4=C3[C@@H](c3ccc(SC)cc3)OC[C@@]21C (some centres unmarked) [Compound 2, 1-Hydroxy-1-isopropenyl-12a-methyl-10-(4-methylsulfanyl-phenyl)-2,3,3a,3b,4,5,9,10,12,12a-decahydro-1H,8H-11-oxa-naphtho[2,1-e]azulen-7-one]",58.2 nM,5.12 nM,–,–,–
